In US20050215517A1, “Use of an anti-endotoxin drug in the prevention and treatment of disease” (priority 1999, published 2005):

What was measured:
[1] = system: LPS endotoxin; assay: Pharmacodynamic analysis of E5564 in vivo: LPS challenge in dogs, plasma TNF-α by bioassay; set-up: species or system beagle dogs; conditions: for TNF-α at 1 hour / TNF-α at 2 hours: plasma; for TNF-α at 1 hour: 1 h after LPS 300 ng/kg i.v.; for TNF-α at 2 hours: 2 h after LPS 300 ng/kg i.v.
Experimental: FIG. 1 is a graph showing the anti-endotoxin activity of E5564 after a single bolus injection. LPS endotoxin (300 ng/kg) was injected intravenously into untreated dogs (∘) or simultaneously with 0.1 mg/kg E5564 (Δ) one hour after E5564 administration (□) or three hours after E5564 administration (●). Blood was drawn and analyzed for TNF-α concentration by bioassay, as is described in the Materials and Methods section, below. Each value represents the mean±S.E.M. of four animals.
In general, the candidate antagonist is administered to a test species of animal, and an appropriate dose of endotoxin (lipopolysaccharide (LPS)) is administered to test the ability of the candidate antagonist to block the effects of endotoxin. Some of the experiments described below use an in vivo challenge of LPS given intravenously both during and after intravenous infusion of E5564. Activity of an antagonist can also be assayed ex vivo by removing blood samples from animals treated with the candidate antagonist and testing that blood to determine if the drug is active and/or present in sufficient quantities to inhibit cellular activation by LPS. In both assays, activity of the antagonist is quantitated by analysis of the cytokines induced by LPS administration. In addition, other physiological symptoms of endotoxin poisoning can be used as readouts of activity. Studies described herein use TNF-α and/or IL-6 as readouts of cellular activation, but a variety of other cytokines and cellular mediators can also be used for this purpose.
As is shown in FIG. 1 and Table 1, delivery of 300 ng/kg of LPS into beagle dogs (“control” in FIG. 1) elicits a strong, reproducible response, as measured by levels of plasma TNF-α. […] This short activity lifetime (i.e., pharmacodynamic half-life) is an unexpected result, as the pharmacokinetic half-life of E5564 is extremely long in comparison (see below). Thus, while the unmodified (unmetabolized) drug appears to remain in circulation for a relatively long period of time, it loses activity. Because of this unexpected discovery, we have chosen to administer E5564 by infusion.
E5564 was synthesized by Eisai Research Institute of Boston, Andover, Mass., U.S.A. E5564 drug product was manufactured at the Eisai Preclinical Laboratory (Tsukuba, Japan) by dissolving 35.4 mg of drug substance in 52.1 ml 0.01 N NaOH, stirring for one hour at room temperature, and diluting into phosphate-buffered lactose. After adjusting the pH to 7.3 and diluting to a final concentration of 0.1 mg/ml E5564, the solution was filter-sterilized and lyophilized.
Escherichia coli LPS (Serotype 0111:B4; phenol extracted, Cat. # L-2630) was purchased from Sigma Chemical Co. Ltd., St. Louis, Mo., U.S.A. Lyophylized E5564 was solubilized in 5 ml of sterile water (Otsuka Pharm. Co. Ltd., Tokyo, Japan). LPS was weighed to an accuracy of 1/10 mg and solubilized in 5% glucose (Otsuka Pharm. Co. Ltd., Tokyo, Japan). The LPS solution was sonicated with a bath-type sonicator for 15 minutes after which aliquots were immediately prepared and stored at −20° C. Prior to use, the solution was sonicated for one or two minutes, and then dilutions were prepared in 5% glucose.
Nine month-old beagles were obtained from Kawashima-shoji Co. Ltd., Gifu, Japan) and housed in stainless steel wire cages (W 800 mm×D 680 mm×H 680 mm; one dog per cage) in a room with a constant temperature of 20-24° C., humidity of 45-65%, and 12 hour light-dark cycle. The animals were provided with pellet food (DS, Oriental Yeast Co., Tokyo, Japan) and water ad libitum. LPS endotoxin (300 ng/0.1 ml/kg) was injected into the vein of the right foreleg at a rate of 1-2 ml/minute, and E5564 was injected into the vein of the left foreleg at a rate of 10-20 ml/minute.
Immediately before or 1, 2, or 4 hours after intravenous injection of LPS and E5564, 1.5 ml of blood was drawn from the left cephalic vein. […]

[2] = Plasma pharmacokinetics of E5564 after single bolus intravenous injection; format: in vivo, dogs; conditions: single bolus i.v.
Experimental: FIG. 3 is a graph showing the plasma levels of E5564 after a single bolus injection. After bolus administration of 0.1 mg/kg E5564 (∘), 0.3 mg/kg E5564 (□), and 1 mg/kg E5564 (▪), blood was drawn and analyzed for E5564 concentration by extraction and analysis by HPLC. Each value represents the mean±S.E.M. of three animals. No drug was detectable in samples drawn prior to dosing.
This long-term presence of unmodified E5564 in blood initially led us to believe that active drug was likely present for very long periods of time after cessation of drug administration.

[3] = Relative toxicity of E5564 versus B531 (animal studies); conditions: E5564 compared with B531
[4] = 0.1 mg/kg E5564 bolus one hour before LPS
[5] = 0.1 mg/kg E5564 bolus three hours before LPS

## CCCCCC/C=C\CCCCCCCCCC(=O)N[C@H]1[C@H](OC[C@H]2O[C@H](OP(=O)(O)O)[C@H](NC(=O)CC(=O)CCCCCCCCCCC)[C@@H](OCCCCCCCCCC)[C@@H]2O)O[C@H](COC)[C@@H](OP(=O)(O)O)[C@@H]1OCC[C@@H](CCCCCCC)OC [E5564, α-D-Glucopyranose, 3-O-decyl-2-deoxy-6-O-[2-deoxy-3-O-[(3R)-3-methoxydecyl)-6-O-methyl-2-[[(11Z)-1-oxo-11-octadecenyl)amino]-4-O-phosphono-β-D-glucopyranosyl]-2-[(1,3-dioxotetradecyl)amino]-,1-(dihydrogen phosphate)]
[1]; 0.1 mg/kg E5564 given at the same time as LPS 300 ng/kg
  Blocking of LPS challenge (plasma TNF-α): completely effective
[1]; E5564 one hour before LPS
  Response to LPS (% of control): 0 % of control
  Sum of TNF-α (AUC): 0 units/ml
[1]; E5564 simultaneously with LPS
  Inhibition of LPS response: 100
  Response to LPS (% of control): 0 % of control
[1]; E5564 three hours before LPS
  Response to LPS (% of control): 52 % of control
[1]; LPS administered three hours after 0.1 mg/kg E5564
  Activity of the endotoxin antagonist remaining: about 48 % of its original activity
[1]; [4]
  TNF-α at 1 hour: 0 units/ml
  TNF-α at 2 hours: 0 units/ml
[1]; 0.1 mg/kg E5564 bolus simultaneously with LPS, four dogs
  TNF-α at 1 hour: 0 units/ml
[1]; [5]
  TNF-α at 1 hour: 1353 ± 340 units/ml
  TNF-α at 2 hours: 190 ± 113 units/ml
[1]; 0.1 mg/kg E5564 bolus simultaneously with LPS
  TNF-α at 2 hours: 0 units/ml
[2]; 0.1 mg/kg dose
  AUC: 71.8255 ± 1.981 µg·h/mL
  T½: 41.7 ± 2.7 h
[2]; 0.3 mg/kg
  AUC: 270.8972 µg·h/mL
  T½: 50.4 ± 2.2 h
[2]; 1 mg/kg
  AUC: 743.5446 µg·h/mL
  T½: 46.4 ± 2.7 h
[3]
  Toxicity relative to B531: about twenty-fold less toxic than B531
